Assay results: patent publication US11369654B2, “Application method of Dendrobium candidum in preparing medicine for treating hypertension” (Hangzhou Danhe Pharmaceutical CO., Ltd., priority 2017, dated 2022)
Where “and” joins values, the source holds several entries; their conditions need not be identical. Equal entries are not always repeated.

Columns and labels:
[1] = tested on: Spontaneously Hypertensive Rats (SHR); experiment: Experiment 2: hypotensive effect of samples of Embodiment 1 and 2, tail artery blood pressure; type: in vivo, rat; conditions: for valley-peak ratio of Systolic Blood Pressure Reduction: 24 h divided by 2 h after administration
Experimental: Rats: 10 weeks old Spontaneously Hypertensive Rats (SHR), Wistar rats were used as normal controls.
Rat Blood Pressure Measurement: BP-98A Non-invasive Tail Artery Blood Pressure Meter, Japan Soft Rotation Co., Ltd.
Group therapy is described in the following description. Blood pressure and body weight are measured and grouped after one week of adaptive feeding in all rats. […] Eight rats in each group are treated for 8 weeks. Blood pressure is observed for 1 week after withdrawal.
Blood pressure measurement: The rats are preheated at 38° C. for 5-10 minutes to avoid blood flow in the tail of the rat. The blood pressure of the rats is measured three times in a waking and quiet state, and the average value of three measurement times is used as the blood pressure of the rats. Blood pressure is measured twice a week, once 2 hours after administration and once 24 hours after administration, to observe the immediate antihypertensive effect and after 24 hours antihypertensive effect (and the peak-to-valley ratio).
(§1) The valley-peak ratio calculation of depressurization amplitude: The difference of blood pressure before treatment minus 24 hours after administration is the trough of the range of blood pressure reduction, which is the lowest point before the next administration; the difference of blood pressure before treatment and 2 hours after administration is the peak value of blood pressure reduction, that is, the maximum point of blood pressure reduction after administration. Valley value of depressurization amplitude divided by peak value of depressurization amplitude is equal to valley-peak ratio of depressurization amplitude.

[2] = tested on: Spontaneously Hypertensive Rats (SHR); experiment: Experiment 5: antihypertensive effect of the sample of Example 2 on SHR; type: in vivo, rat
Experimental: Rats: Spontaneously Hypertensive Rats (SHR), Wistar rats are used as normal controls.
Rat Blood Pressure Measurement: BP-98A Non-invasive Tail Artery Blood Pressure Meter, Japan Soft Rotation Co., Ltd
Group therapy is described in the following description. Blood pressure and body weight are measured and grouped after one week of adaptive feeding in all rats. […] Eight rats in each group are treated for 2 weeks.
The following description discussed with the blood pressure measurement. The rats are preheated at 38° C. for 5-10 minutes to avoid blood flow in the tail of the rat. The blood pressure of the rats is measured three times in a waking and quiet state, and the average value of three times was used as the blood pressure of the rats. Blood pressure is measured twice a week, once 2 hours after administration and once 24 hours after administration, to observe the immediate antihypertensive effect and after 24 hours antihypertensive effect (and the peak-to-valley ratio).
as §1, with “The following description discusses with the trough-peak” for “The valley-peak”, “depressurization amplitude.” for “depressurization amplitude:”

[3] = 2 h after administration, treatment for 1 week, 0.8 g/kg crude drug, amlodipine 0.5 mg/kg
[4] = 2 h after administration, treatment for 1 week, 0.8 g/kg crude drug, amlodipine 0.5 mg/kg, listed as amlodipine
[5] = 2 h after administration, treatment for 2 weeks, 0.8 g/kg crude drug, amlodipine 0.5 mg/kg
[6] = 2 h after administration, treatment for 3 weeks, 0.8 g/kg crude drug, amlodipine 0.5 mg/kg
[7] = 2 h after administration, treatment for 4 weeks, 0.8 g/kg crude drug, amlodipine 0.5 mg/kg
[8] = 2 h after administration, treatment for 5 weeks, 0.8 g/kg crude drug, amlodipine 0.5 mg/kg
[9] = 2 h after administration, treatment for 6 weeks, 0.8 g/kg crude drug, amlodipine 0.5 mg/kg
[10] = 2 h after administration, treatment for 7 weeks, 0.8 g/kg crude drug, amlodipine 0.5 mg/kg
[11] = 2 h after administration, treatment for 8 weeks, 0.8 g/kg crude drug, amlodipine 0.5 mg/kg
[12] = 2 h after administration, treatment for 8 weeks, 0.8 g/kg crude drug, amlodipine 0.5 mg/kg, listed as amlodipine
[13] = 24 h after administration, treatment for 1 week, 0.8 g/kg crude drug, amlodipine 0.5 mg/kg
[14] = 24 h after administration, treatment for 2 weeks, 0.8 g/kg crude drug, amlodipine 0.5 mg/kg
[15] = 24 h after administration, treatment for 3 weeks, 0.8 g/kg crude drug, amlodipine 0.5 mg/kg
[16] = 24 h after administration, treatment for 4 weeks, 0.8 g/kg crude drug, amlodipine 0.5 mg/kg
[17] = 24 h after administration, treatment for 5 weeks, 0.8 g/kg crude drug, amlodipine 0.5 mg/kg
[18] = 24 h after administration, treatment for 6 weeks, 0.8 g/kg crude drug, amlodipine 0.5 mg/kg
[19] = 24 h after administration, treatment for 7 weeks, 0.8 g/kg crude drug, amlodipine 0.5 mg/kg
[20] = 24 h after administration, treatment for 8 weeks, 0.8 g/kg crude drug, amlodipine 0.5 mg/kg
[21] = 24 h after administration, treatment for 8 weeks, 0.8 g/kg crude drug, amlodipine 0.5 mg/kg, listed as amlodipine
[22] = stopping for 1 week after 8 weeks of treatment
[23] = stopping for 3 days after 8 weeks of treatment
[24] = stopping for 3 days after 8 weeks of treatment, listed as amlodipine
[25] = treatment for 1 week, 0.8 g/kg crude drug, amlodipine 0.5 mg/kg
[26] = treatment for 2 weeks, 0.8 g/kg crude drug, amlodipine 0.5 mg/kg
[27] = treatment for 3 weeks, 0.8 g/kg crude drug, amlodipine 0.5 mg/kg
[28] = treatment for 4 weeks, 0.8 g/kg crude drug, amlodipine 0.5 mg/kg
[29] = treatment for 5 weeks, 0.8 g/kg crude drug, amlodipine 0.5 mg/kg
[30] = treatment for 6 weeks, 0.8 g/kg crude drug, amlodipine 0.5 mg/kg
[31] = treatment for 7 weeks, 0.8 g/kg crude drug, amlodipine 0.5 mg/kg
[32] = treatment for 8 weeks, 0.8 g/kg crude drug, amlodipine 0.5 mg/kg
[33] = 2 h after administration, treatment for 1 week, medium dose 0.8 g/kg crude drug, amlodipine 0.5 mg/kg
[34] = 2 h after administration, treatment for 2 weeks, medium dose 0.8 g/kg crude drug, amlodipine 0.5 mg/kg
[35] = 24 h after administration, treatment for 1 week, medium dose 0.8 g/kg crude drug, amlodipine 0.5 mg/kg
[36] = 24 h after administration, treatment for 2 weeks, medium dose 0.8 g/kg crude drug, amlodipine 0.5 mg/kg
[37] = before treatment, medium dose group 0.8 g/kg crude drug, amlodipine group 0.5 mg/kg
[38] = treatment for 1 week, medium dose 0.8 g/kg crude drug, amlodipine 0.5 mg/kg
[39] = treatment for 2 weeks, medium dose 0.8 g/kg crude drug, amlodipine 0.5 mg/kg

`CCOC(=O)C1=C(COCCN)NC(C)=C(C(=O)OC)C1c1ccccc1Cl` (centres unmarked) [Amlodipine, amlodipine besylate] was tested, and the diastolic blood pressure [1, 3] was 143.2 mmHg, the systolic blood pressure [1, 3] was 175.1 mmHg and the diastolic blood pressure [1, 4] was 143.2±6.41 mmHg. It also gave a systolic blood pressure [1, 4] of 175.1±4.44 mmHg, a diastolic blood pressure [1, 5] of 145.5 mmHg and a systolic blood pressure [1, 5] of 178.3 mmHg. For the same molecule, the diastolic blood pressure [1, 6] was 144.7 mmHg, the systolic blood pressure [1, 6] was 177.8 mmHg and the diastolic blood pressure [1, 7] was 146.2 mmHg. For the same molecule, the systolic blood pressure [1, 7] was 175.7 mmHg, the diastolic blood pressure [1, 8] was 137.6 mmHg and the systolic blood pressure [1, 8] was 174.3 mmHg. It also gave a diastolic blood pressure [1, 9] of 143.1 mmHg, a systolic blood pressure [1, 9] of 178.8 mmHg and a diastolic blood pressure [1, 10] of 139.9 mmHg. It also gave a systolic blood pressure [1, 10] of 175.8 mmHg, a diastolic blood pressure [1, 11] of 144.7 mmHg and a systolic blood pressure [1, 11] of 178.1 mmHg. For the same molecule, the diastolic blood pressure [1, 12] was 144.7±3.43 mmHg, the systolic blood pressure [1, 12] was 178.1±2.67 mmHg and the diastolic blood pressure [1, 13] was 162.3 mmHg. It also gave a systolic blood pressure [1, 13] of 200.7 mmHg, a diastolic blood pressure [1, 14] of 158.6 mmHg and a systolic blood pressure [1, 14] of 202.6 mmHg. It also gave a diastolic blood pressure [1, 15] of 159.0 mmHg, a systolic blood pressure [1, 15] of 201.6 mmHg and a diastolic blood pressure [1, 16] of 161.3 mmHg. For the same molecule, the systolic blood pressure [1, 16] was 209.0 mmHg, the diastolic blood pressure [1, 17] was 161.8 mmHg and the systolic blood pressure [1, 17] was 207.8 mmHg. For the same molecule, the diastolic blood pressure [1, 18] was 165.0 mmHg, the systolic blood pressure [1, 18] was 202.8 mmHg and the diastolic blood pressure [1, 19] was 156.3 mmHg. It also gave a systolic blood pressure [1, 19] of 199.5 mmHg, a diastolic blood pressure [1, 20] of 154.3 mmHg and a systolic blood pressure [1, 20] of 202.0 mmHg. For the same molecule, the diastolic blood pressure [1, 21] was 154.3±5.50 mmHg, the systolic blood pressure [1, 21] was 202.0±5.88 mmHg and the diastolic blood pressure ([1]; before treatment) was 156.0 mmHg. The systolic blood pressure ([1]; before treatment) was 209.8 mmHg and 209.8 ± 8.92 mmHg, the diastolic blood pressure [1, 22] was 155.4 mmHg and the systolic blood pressure [1, 22] was 214.2 mmHg. It also gave a diastolic blood pressure [1, 23] of 158.7 mmHg, a systolic blood pressure [1, 23] of 205.4 mmHg and a diastolic blood pressure [1, 24] of 158.7±2.79 mmHg. The systolic blood pressure [1, 24] was 205.4±1.85 mmHg, the “2-hour hypotensive amplitude (peak of systolic blood pressure reduction)” value [1, 25] was 34.7 mmHg and the “24-hour hypotensive amplitude (trough of systolic blood pressure reduction)” value [1, 25] was 9.1 mmHg. For the same molecule, the “valley-peak ratio of Systolic Blood Pressure Reduction” value [1, 25] was 0.26, the “2-hour hypotensive amplitude (peak of systolic blood pressure reduction)” value [1, 26] was 31.5 mmHg and the “24-hour hypotensive amplitude (trough of systolic blood pressure reduction)” value [1, 26] was 7.2 mmHg. The “valley-peak ratio of Systolic Blood Pressure Reduction” value [1, 26] was 0.23, the “2-hour hypotensive amplitude (peak of systolic blood pressure reduction)” value [1, 27] was 32.0 mmHg and the “24-hour hypotensive amplitude (trough of systolic blood pressure reduction)” value [1, 27] was 8.2 mmHg. The “valley-peak ratio of Systolic Blood Pressure Reduction” value [1, 27] was 0.26, the “2-hour hypotensive amplitude (peak of systolic blood pressure reduction)” value [1, 28] was 34.1 mmHg and the “24-hour hypotensive amplitude (trough of systolic blood pressure reduction)” value [1, 28] was 0.8 mmHg. For the same molecule, the “valley-peak ratio of Systolic Blood Pressure Reduction” value [1, 28] was 0.02, the “2-hour hypotensive amplitude (peak of systolic blood pressure reduction)” value [1, 29] was 35.5 mmHg and the “24-hour hypotensive amplitude (trough of systolic blood pressure reduction)” value [1, 29] was 2.0 mmHg. The “valley-peak ratio of Systolic Blood Pressure Reduction” value [1, 29] was 0.06, the “2-hour hypotensive amplitude (peak of systolic blood pressure reduction)” value [1, 30] was 31.0 mmHg and the “24-hour hypotensive amplitude (trough of systolic blood pressure reduction)” value [1, 30] was 7.0 mmHg. The “valley-peak ratio of Systolic Blood Pressure Reduction” value [1, 30] was 0.23, the “2-hour hypotensive amplitude (peak of systolic blood pressure reduction)” value [1, 31] was 34.0 mmHg and the “24-hour hypotensive amplitude (trough of systolic blood pressure reduction)” value [1, 31] was 10.3 mmHg. The “valley-peak ratio of Systolic Blood Pressure Reduction” value [1, 31] was 0.30, the “2-hour hypotensive amplitude (peak of systolic blood pressure reduction)” value [1, 32] was 31.7 mmHg and the “24-hour hypotensive amplitude (trough of systolic blood pressure reduction)” value [1, 32] was 7.8 mmHg. The “valley-peak ratio of Systolic Blood Pressure Reduction” value [1, 32] was 0.25, the diastolic blood pressure [2, 33] was 146.8 mmHg and the systolic blood pressure [2, 33] was 178.2 mmHg. It also gave a diastolic blood pressure [2, 34] of 148.5 mmHg, a systolic blood pressure [2, 34] of 180.5 mmHg and a diastolic blood pressure [2, 35] of 157.1 mmHg. The systolic blood pressure [2, 35] was 203.5 mmHg, the diastolic blood pressure [2, 36] was 157.6 mmHg and the systolic blood pressure [2, 36] was 205.6 mmHg. For the same molecule, the diastolic blood pressure [2, 37] was 159.6 mmHg, the systolic blood pressure [2, 37] was 212.7 mmHg and 212.7 ± 6.87 mmHg and the “2-hour hypotensive amplitude (peak of systolic blood pressure reduction)” value [2, 38] was 34.5 mmHg. The “24-hour hypotensive amplitude (trough of systolic blood pressure reduction)” value [2, 38] was 9.2 mmHg, the “valley-peak ratio of Systolic Blood Pressure Reduction” value [2, 38] was 0.27 and the “2-hour hypotensive amplitude (peak of systolic blood pressure reduction)” value [2, 39] was 32.2 mmHg. For the same molecule, the “24-hour hypotensive amplitude (trough of systolic blood pressure reduction)” value [2, 39] was 7.1 mmHg and the “valley-peak ratio of Systolic Blood Pressure Reduction” value [2, 39] was 0.22.
